Several values for one entry are separate records, joined by “and”; a condition that tells them apart may be missing. Identical values can stand only once. Inconclusive results and toxic doses are left out.
Tested on: BDF1 mice, B16 melanoma ip, median survival T/C
Assay: NCI In Vivo Anticancer Drug Screen. Data for tumor model B16 Melanoma (intraperitoneal) in B6D2F1 (BDF1) mice
Details: endpoint: median survival time, higher = longer survival
Procedure: The antitumor activity of compounds was measured in mice bearing transplantable tumors. Survival or tumor size were measured and the results are expressed as the measurement made in the treated group (T) divided by the measurement made in the vehicle treated control group (C). The tumor model used in this assay is B16 Melanoma (intraperitoneal) in B6D2F1 (BDF1) mice

[1] = dose: 12.5 mg/kg/injection, schedule: Q01DX009 (ip), vehicle: Klucel (hydroxypropylcellulose) (HPC)
[2] = dose: 50.0 mg/kg/injection, schedule: Q04DX003 (ip), vehicle: Klucel (hydroxypropylcellulose) (HPC)
[3] = dose: 100.0 mg/kg/injection, schedule: Q04DX003 (ip), vehicle: Klucel (hydroxypropylcellulose) (HPC)
[4] = dose: 100.0 mg/kg/injection, schedule: Q01DX009 (ip), vehicle: Klucel (hydroxypropylcellulose) (HPC)
[5] = dose: 200.0 mg/kg/injection, schedule: Q01DX009 (ip), vehicle: Klucel (hydroxypropylcellulose) (HPC)
[6] = dose: 0.78 mg/kg/injection, schedule: Q01DX009 (ip), vehicle: Klucel (hydroxypropylcellulose) (HPC)
[7] = dose: 1.56 mg/kg/injection, schedule: Q01DX009 (ip), vehicle: Klucel (hydroxypropylcellulose) (HPC)
[8] = dose: 6.25 mg/kg/injection, schedule: Q01DX009 (ip), vehicle: saline
[9] = dose: 400.0 mg/kg/injection, schedule: Q01DX009 (ip), vehicle: Klucel (hydroxypropylcellulose) (HPC)
[10] = dose: 12.5 mg/kg/injection, schedule: Q01DX009 (ip), vehicle: saline with Tween-80

O=C1c2c(O)ccc(O)c2C(=O)c2c(NCCNCCO)ccc(NCCNCCO)c21
T/C (dose: 0.13 mg/kg/injection, schedule: Q01DX009 (ip), vehicle: saline with Tween-80): 110 % of control | T/C (dose: 0.25 mg/kg/injection, schedule: Q01DX009 (ip), vehicle: saline): 186 % of control and 188 % of control | T/C (dose: 0.25 mg/kg/injection, schedule: Q01DX009 (ip), vehicle: water): 157 % of control and 160 % of control and 174 % of control | T/C (dose: 0.25 mg/kg/injection, schedule: Q01DX009 (oral), vehicle: acid diluted with saline): 98 % of control | T/C (dose: 0.5 mg/kg/injection, schedule: Q01DX009 (ip), vehicle: saline): 218 % of control | T/C (dose: 0.5 mg/kg/injection, schedule: Q01DX009 (ip), vehicle: water): 218 % of control and 225 % of control and 247 % of control | T/C (dose: 0.5 mg/kg/injection, schedule: Q01DX009 (oral), vehicle: acid diluted with saline): 104 % of control | T/C (dose: 1.0 mg/kg/injection, schedule: Q01DX009 (ip), vehicle: saline with Tween-80): 152 % of control and 156 % of control | T/C (dose: 1.0 mg/kg/injection, schedule: Q01DX009 (ip), vehicle: saline): 260 % of control and 267 % of control | T/C (dose: 1.0 mg/kg/injection, schedule: Q01DX009 (ip), vehicle: water): 121 % of control and 202 % of control and 261 % of control | T/C (dose: 1.25 mg/kg/injection, schedule: Q01DX001 (ip), vehicle: acid diluted with saline): 153 % of control | T/C (dose: 2.0 mg/kg/injection, schedule: Q01DX001 (ip), vehicle: water): 212 % of control | T/C (dose: 2.0 mg/kg/injection, schedule: Q01DX009 (ip), vehicle: saline): 207 % of control and 251 % of control | T/C (dose: 2.0 mg/kg/injection, schedule: Q01DX009 (ip), vehicle: water): 221 % of control | T/C (dose: 2.5 mg/kg/injection, schedule: Q01DX001 (ip), vehicle: acid diluted with saline): 123 % of control and 205 % of control | T/C (dose: 4.0 mg/kg/injection, schedule: Q01DX001 (ip), vehicle: water): 202 % of control | T/C (dose: 8.0 mg/kg/injection, schedule: Q01DX001 (ip), vehicle: water): 303 % of control

Cc1ccc(NS(=O)(=O)c2ccccc2)c(C)c1
T/C (dose: 75.0 mg/kg/injection, schedule: Q01DX009 (ip), vehicle: Klucel (hydroxypropylcellulose) (HPC)): 86 % of control | T/C (dose: 150.0 mg/kg/injection, schedule: Q01DX009 (ip), vehicle: Klucel (hydroxypropylcellulose) (HPC)): 87 % of control | T/C (dose: 300.0 mg/kg/injection, schedule: Q01DX009 (ip), vehicle: Klucel (hydroxypropylcellulose) (HPC)): 92 % of control

ClCCCCCCCCCCCl
T/C [1]: 111 % of control | T/C (dose: 25.0 mg/kg/injection, schedule: Q01DX009 (ip), vehicle: Klucel (hydroxypropylcellulose) (HPC)): 100 % of control | T/C (dose: 25.0 mg/kg/injection, schedule: Q04DX003 (ip), vehicle: Klucel (hydroxypropylcellulose) (HPC)): 100 % of control | T/C (dose: 50.0 mg/kg/injection, schedule: Q01DX009 (ip), vehicle: Klucel (hydroxypropylcellulose) (HPC)): 95 % of control | T/C [2]: 100 % of control | T/C [3]: 104 % of control

Cc1ccc(S(=O)(=O)Nc2ccccc2-c2nc3c(Cl)ccc(Cl)c3c(=O)o2)cc1
T/C [4]: 105 % of control | T/C [5]: 92 % of control

N#Cc1ccccc1N=NNc1ccccc1C#N
T/C [6]: 90 % of control | T/C [7]: 102 % of control | T/C (dose: 3.12 mg/kg/injection, schedule: Q01DX009 (ip), vehicle: Klucel (hydroxypropylcellulose) (HPC)): 96 % of control | T/C [1]: 86 % of control

[Cl][Hg][c]1ccc2ccccc2c1
T/C (dose: 1.5 mg/kg/injection, schedule: Q01DX009 (ip), vehicle: gum acacia): 108 % of control | T/C (dose: 3.0 mg/kg/injection, schedule: Q01DX009 (ip), vehicle: gum acacia): 95 % of control | T/C (dose: 6.0 mg/kg/injection, schedule: Q01DX009 (ip), vehicle: gum acacia): 95 % of control | T/C (dose: 12.5 mg/kg/injection, schedule: Q01DX009 (ip), vehicle: gum acacia): 96 % of control

CN1CCC(CN2c3ccccc3Sc3ccccc32)C1 (stereo not given)
T/C (dose: 3.12 mg/kg/injection, schedule: Q01DX009 (ip), vehicle: saline): 105 % of control | T/C [8]: 89 % of control | T/C (dose: 12.5 mg/kg/injection, schedule: Q01DX009 (ip), vehicle: saline): 94 % of control | T/C (dose: 25.0 mg/kg/injection, schedule: Q01DX009 (ip), vehicle: saline): 107 % of control | T/C (dose: 50.0 mg/kg/injection, schedule: Q01DX009 (ip), vehicle: saline): 92 % of control

Cc1c(Cl)cccc1NC(=O)c1ccccc1Cl
T/C [4]: 100 % of control | T/C [5]: 93 % of control | T/C [9]: 94 % of control

O=C(NC(CSCc1ccccc1)C(=O)Oc1ccc([N+](=O)[O-])cc1)OCc1ccccc1 (stereo not given)
T/C (dose: 25.0 mg/kg/injection, schedule: Q01DX009 (ip), vehicle: gum acacia): 97 % of control

Cc1cc(C)nc(NS(=O)(=O)c2ccc(N=Nc3nc4[nH]c(N)nc(=S)c4[nH]3)cc2)n1
T/C (dose: 0.19 mg/kg/injection, schedule: Q01DX009 (ip), vehicle: Klucel (hydroxypropylcellulose) (HPC)): 115 % of control | T/C (dose: 0.39 mg/kg/injection, schedule: Q01DX009 (ip), vehicle: Klucel (hydroxypropylcellulose) (HPC)): 111 % of control | T/C [6]: 105 % of control | T/C [7]: 102 % of control

FC(F)(F)c1ccc2c(c1)N(CCCN1CCN(CCN3CCCCC3)CC1)c1ccccc1S2
T/C (dose: 0.78 mg/kg/injection, schedule: Q01DX009 (ip), vehicle: saline): 100 % of control | T/C (dose: 1.56 mg/kg/injection, schedule: Q01DX009 (ip), vehicle: saline): 105 % of control | T/C [8]: 97 % of control

CC1(C)N=C(N)N=C(N)N1c1ccc(CCCCc2ccc(Cl)c(S(=O)(=O)F)c2)c(Cl)c1
T/C (dose: 8.0 mg/kg/injection, schedule: Q01DX009 (ip), vehicle: saline): 105 % of control | T/C (dose: 12.0 mg/kg/injection, schedule: Q01DX009 (ip), vehicle: saline): 114 % of control | T/C (dose: 18.0 mg/kg/injection, schedule: Q01DX009 (ip), vehicle: saline): 118 % of control

CC(=O)NC1CC2c3ccccc3C1([N+](=O)[O-])c1ccccc12 (stereo not given)
T/C [4]: 100 % of control | T/C [5]: 94 % of control | T/C [9]: 91 % of control

O=c1ccc2nc3ccccc3sc-2c1
T/C [10]: 93 % of control | T/C (dose: 25.0 mg/kg/injection, schedule: Q01DX009 (ip), vehicle: saline with Tween-80): 86 % of control | T/C (dose: 50.0 mg/kg/injection, schedule: Q01DX009 (ip), vehicle: saline with Tween-80): 95 % of control | T/C (dose: 100.0 mg/kg/injection, schedule: Q01DX009 (ip), vehicle: saline with Tween-80): 91 % of control

CCCCS(=O)CC(CO)NC(=O)/C=C/c1c(C)[nH]c(=O)[nH]c1=O (stereo not given)
T/C (dose: 0.63 mg/kg/injection, schedule: Q01DX009 (ip), vehicle: water): 104 % of control | T/C (dose: 1.25 mg/kg/injection, schedule: Q01DX009 (ip), vehicle: water): 102 % of control | T/C (dose: 2.5 mg/kg/injection, schedule: Q01DX009 (ip), vehicle: water): 104 % of control | T/C (dose: 5.0 mg/kg/injection, schedule: Q01DX009 (ip), vehicle: water): 99 % of control | T/C (dose: 10.0 mg/kg/injection, schedule: Q01DX009 (ip), vehicle: water): 95 % of control

S=C=NCCCCCCCCCCCCN=C=S
T/C (dose: 3.12 mg/kg/injection, schedule: Q01DX009 (ip), vehicle: saline with Tween-80): 99 % of control | T/C (dose: 6.25 mg/kg/injection, schedule: Q01DX009 (ip), vehicle: saline with Tween-80): 86 % of control | T/C [10]: 98 % of control

Cc1ccc(NC(=O)Nc2ccccc2)cc1Cl
T/C (dose: 100.0 mg/kg/injection, schedule: Q01DX008 (sc), vehicle: olive oil, sesame oil, peanut oil): 99 % of control | T/C (dose: 200.0 mg/kg/injection, schedule: Q01DX008 (sc), vehicle: olive oil, sesame oil, peanut oil): 96 % of control | T/C (dose: 400.0 mg/kg/injection, schedule: Q01DX008 (sc), vehicle: olive oil, sesame oil, peanut oil): 98 % of control

COc1cccc(/C=N/NC(=O)c2ccccc2N2CCCC2)c1O
T/C (dose: 12.5 mg/kg/injection, schedule: Q01DX009 (ip), vehicle: olive oil, sesame oil, peanut oil): 89 % of control | T/C (dose: 50.0 mg/kg/injection, schedule: Q01DX009 (ip), vehicle: olive oil, sesame oil, peanut oil): 89 % of control | T/C (dose: 100.0 mg/kg/injection, schedule: Q01DX009 (ip), vehicle: olive oil, sesame oil, peanut oil): 87 % of control | T/C (dose: 200.0 mg/kg/injection, schedule: Q01DX009 (ip), vehicle: olive oil, sesame oil, peanut oil): 86 % of control | T/C (dose: 400.0 mg/kg/injection, schedule: Q01DX009 (ip), vehicle: olive oil, sesame oil, peanut oil): 96 % of control

Cc1cc(Cl)ccc1NC(=O)Nc1ccc(Cl)c(Cl)c1
T/C [2]: 90 % of control | T/C [3]: 95 % of control

Reference: PubChem BioAssay AID192 (DTP/NCI, 2004)
